Test results taken from patent publication US11964973B2 (priority 2019, dated 2024).
Like-named read-outs stand apart in the source and are kept apart here. One block for each compound: values may come before it.

What was measured:
[1] = tested on: human venous whole blood, CD8 positive population (pERK); experiment: DGK human whole blood pERK assay; assay type: cell-based; conditions: for IC50: human whole blood, CD8 positive population, read-out: DGK HWB pERK IC50
Method: Assay 11: DGK Human Whole Blood pERK Assay
Human whole blood ERK phosphorylation assay was performed with human venous whole blood obtained from healthy donors (drawn with Heparin as anti-coagulant). […] Heparinized human whole blood was added to the compound plate at 9 μL per well and incubated for one hour at 37° C. in a humidified 95%, air/5% CO2 incubator. After one hour of compound incubation, 1 μL of human anti-CD3 antibody (in-house) in the presence of cross-linking antibody goat anti-mouse IgG (4 μg/mL) was added to the well at 1 μg/mL final concentration for stimulation of pathway and additionally incubated for 15 minutes at 37° C. […] Samples analyzed using the Intellicyt® iQue Screener PLUS. The pERK activation was quantitated by the percentage of pERK positive population within CD8 positive population.

[2] = tested on: Human venous whole blood (IFN-γ); experiment: Human whole blood IFN-γ assay; assay type: cell-based
Method: Assay 10: Human Whole Blood IFN-γ Assay
Human venous whole blood (22.5 μL per well), obtained from healthy donors, was pre-treated with compounds for one hour at 37° C. in a humidified 95% air/5% CO2 incubator. The blood was stimulated with 2.5 μL anti-human CD3 and anti-CD28 mAb at a final concentration of 1 μg/mL each for 24 hours at 37° C. IFN-γ in the supernatants was measured using AlphLISA kit (Cat #AL217).

[3] = Homo sapiens, 24 h, human whole blood, anti-CD3 plus anti-CD28, 24 hours, read-out: INFg Whole Blood Normalized Agonist EC50
[4] = Homo sapiens, CD8 positive, human whole blood pERK, read-out: DGK HWB
[5] = Homo sapiens, human whole blood IFN-γ, read-out: INFg Whole Blood
[6] = human whole blood pERK, read-out: DGK HWB
[7] = read-out: DGK HWB, human whole blood pERK
[8] = Homo sapiens, CD8 positive, read-out: DGK HWB, human whole blood pERK

Compound: C[C@@H]1CN(c2cc(=O)n(C)c3ccc(C#N)nc23)CC[C@H]1Oc1ccc(F)c(F)c1 (racemic) [Example 103, 8-((3R,4R)-4-(3,4-difluorophenoxy)-3-methylpiperidin-1-yl)-5-methyl-6-oxo-5,6-dihydro-1,5-naphthyridine-2-carbonitrile]
- IC50 [1]: 5500 nM
- EC50 [2, 3]: 1500 nM

Compound: CC(C)Oc1ccc(O[C@H]2CCN(c3cc(=O)n(C)c4ccc(C#N)nc34)C[C@H]2C)nc1 (racemic) [Example 228, (+/−) 8-(cis-4-((5-isopropoxypyridin-2-yl)oxy)-3-methylpiperidin-1-yl)-5-methyl-6-oxo-5,6-dihydro-1,5-naphthyridine-2-carbonitrile]
- EC50 [1, 4]: 1500 nM
- EC50 [2, 5]: 1100 nM

Compound: Cn1c(=O)cc(N2CCC(Oc3ccc(C(C)(C)C)cc3)CC2)c2cc(C#N)ccc21 [Example 53, 4-(4-(4-(tert-butyl)phenoxy)piperidin-1-yl)-1-methyl-2-oxo-1,2-dihydroquinoline-6-carbonitrile]
- IC50 [1]: 2800 nM
- EC50 [2, 3]: 1800 nM

Compound: CCO[C@@H]1CN(c2cc(=O)n(C)c3ccc(C#N)nc23)CC[C@H]1Oc1cccc(C(F)(F)F)c1 [Example 263, 8-((3R,4R)-3-ethoxy-4-(3-(trifluoromethyl)phenoxy)piperidin-1-yl)-5-methyl-6-oxo-5,6-dihydro-1,5-naphthyridine-2-carbonitrile]
- EC50 [1, 4]: 200 nM
- EC50 ([2]; human whole blood IFN-γ, read-out: INFg Whole Blood): 180 nM

Compound: C[C@@H]1CN(c2cc(=O)n(C)c3ccc(C#N)nc23)CC[C@@H]1Oc1ccc(C(C)(C)C)cc1 (racemic) [Example 175, 8-((3R,4S)-4-(4-(tert-butyl)phenoxy)-3-methylpiperidin-1-yl)-5-methyl-6-oxo-5,6-dihydro-1,5-naphthyridine-2-carbonitrile]
- IC50 [1]: 800 nM
- EC50 [2, 3]: 1400 nM

Compound: CC(C)Oc1ccc(O[C@@H]2CCN(c3cc(=O)n(C)c4ccc(C#N)nc34)C[C@H]2C)nc1 (single isomer, unassigned) [Example 200]
- EC50 [1, 4]: 3300 nM
- EC50 [2, 5]: 1500 nM

Compound: CCO[C@H]1CN(c2cc(=O)n(C)c3ccc(C#N)nc23)CC[C@@H]1Oc1cccc(OC(F)(F)F)c1 [Example 351, 8-((3S,4S)-3-ethoxy-4-(3-(trifluoromethoxy)phenoxy)piperidin-1-yl)-5-methyl-6-oxo-5,6-dihydro-1,5-naphthyridine-2-carbonitrile]
- EC50 [1, 6]: 210 nM

- EC50 [1, 7]: 5500 nM
Compound: C[C@H]1CN(c2cc(=O)n(C)c3ccc(C#N)nc23)[C@@H](C)CC1N(C)Cc1ccc(F)cc1 (single isomer, unassigned) [Example 333]

Compound: CC1CN(c2c(C#N)c(=O)n(C)c3ccc(C#N)nc23)CCC1N(C)C1CCC(F)(F)CC1 (single isomer, unassigned) [Example 330]
- EC50 [1, 6]: 20000 nM

Compound: CCO[C@H]1CN(c2cc(=O)n(C)c3ccc(C#N)nc23)CC[C@@H]1Oc1ccccc1 (relative stereo) [Example 342, trans-8-(3-Ethoxy-4-phenoxypiperidin-1-yl)-5-methyl-6-oxo-5,6-dihydro-1,5-naphthyridine-2-carbonitrile]
- EC50 [1, 6]: 840 nM

Compound: CC1CN(c2cc(=O)n(C)c3ccc(C#N)nc23)CCC1N(C)Cc1ccc(F)cc1 (single isomer, unassigned) [Example 327, -(4-((4-fluorobenzyl)(methyl)amino)-3-methylpiperidin-1-yl)-5-methyl-6-oxo-5,6-dihydro-1,5-naphthyridine-2-carbonitrile]
- EC50 [1, 4]: 1900 nM

- EC50 [1, 7]: 2100 nM
Compound: CC(C)Oc1ccc(OC2C[C@H](C)N(c3nc(=O)n(C)c4ccc(C#N)nc34)C[C@H]2C)nc1 (stereo partly drawn) [Example 250, 4-((2S,5R)-4-((5-isopropoxypyridin-2-yl)oxy)-2,5-dimethylpiperidin-1-yl)-1-methyl-2-oxo-1,2-dihydropyrido[3,2-d]pyrimidine-6-carbonitrile]

Compound: CCO[C@H]1CN(c2cc(=O)n(C)c3ccc(C#N)nc23)CC[C@@H]1Oc1ccc(C(F)(F)F)cc1 [Example 343, 8-((3S,4S)-3-ethoxy-4-(4-(trifluoromethyl)phenoxy)piperidin-1-yl)-5-methyl-6-oxo-5,6-dihydro-1,5-naphthyridine-2-carbonitrile]
- EC50 [1, 6]: 320 nM

- EC50 [1, 7]: 20000 nM
Compound: CC1CN(c2c(C#N)c(=O)n(C)c3ccc(C#N)nc23)CCC1N(C)C(=O)c1ccc(C(F)(F)F)cc1 (single isomer, unassigned) [Example 293, N-(1-(3,6-dicyano-1-methyl-2-oxo-1,2-dihydro-1,5-naphthyridin-4-yl)-3-methylpiperidin-4-yl)-N-methyl-4-(trifluoromethyl)benzamide]

- EC50 [1, 8]: 740 nM
Compound: CC(C)Oc1ccc(OC2C[C@@H](C)N(c3nc(=O)n(C)c4ccc(C#N)nc34)C[C@@H]2C)nc1 (stereo partly drawn) [Example 248, 4-((2R,5S)-4-((5-isopropoxypyridin-2-yl)oxy)-2,5-dimethylpiperidin-1-yl)-1-methyl-2-oxo-1,2-dihydropyrido[3,2-d]pyrimidine-6-carbonitrile]

Compound: CC[C@@H]1CN(c2cc(=O)n(C)c3ccc(C#N)nc23)[C@H](C)C[C@H]1Oc1cccc(C(F)(F)F)c1 [Example 310, 8-((2R,4R,5R)-5-ethyl-2-methyl-4-(3-(trifluoromethyl)phenoxy)piperidin-1-yl)-5-methyl-6-oxo-5,6-dihydro-1,5-naphthyridine-2-carbonitrile]
- EC50 [1, 4]: 9900 nM

- EC50 [1, 7]: 7000 nM
Compound: CCO[C@H]1CN(c2cc(=O)n(C)c3ccc(C#N)nc23)CC[C@@H]1Oc1ccc(Cl)c(F)c1 [Example 358, 8-((3S,4S)-4-(4-chloro-3-fluorophenoxy)-3-ethoxypiperidin-1-yl)-5-methyl-6-oxo-5,6-dihydro-1,5-naphthyridine-2-carbonitrile]

Compound: CCO[C@H]1CN(c2cc(=O)n(C)c3ccc(C#N)nc23)CC[C@@H]1Oc1ccc2oc(C)nc2c1 [Example 356, 8-((3S,4S)-3-ethoxy-4-((2-methylbenzo[d]oxazol-5-yl)oxy)piperidin-1-yl)-5-methyl-6-oxo-5,6-dihydro-1,5-naphthyridine-2-carbonitrile]
- EC50 [1, 6]: 3900 nM

Compound: C[C@H]1CN(c2cc(=O)n(C)c3ccc(C#N)nc23)[C@@H](C)C[C@H]1Oc1cccc(Cl)c1 [Example 313, 8-((2S,4R,5S)-4-(3-chlorophenoxy)-2,5-dimethylpiperidin-1-yl)-5-methyl-6-oxo-5,6-dihydro-1,5-naphthyridine-2-carbonitrile]
- EC50 [1, 4]: 7100 nM

- EC50 [1, 7]: 16000 nM
Compound: C[C@@H]1CN(c2cc(=O)n(C)c3ccc(C#N)nc23)[C@@H](C)CC1N(C)Cc1ccc(F)cc1 (single isomer, unassigned) [Example 332]

Compound: CCO[C@H]1CN(c2cc(=O)n(C)c3ccc(C#N)nc23)CC[C@@H]1Oc1cc(C(F)(F)F)ccn1 [Example 365, 8-((3S,4S)-3-ethoxy-4-((4-(trifluoromethyl)pyridin-2-yl)oxy)piperidin-1-yl)-5-methyl-6-oxo-5,6-dihydro-1,5-naphthyridine-2-carbonitrile]
- EC50 [1, 6]: 600 nM

- EC50 [1, 7]: 700 nM
Compound: CCO[C@H]1CN(c2cc(=O)n(C)c3ccc(C#N)nc23)CC[C@@H]1Oc1ccnc(C(F)(F)F)c1 [Example 360, 8-((3S,4S)-3-ethoxy-4-((2-(trifluoromethyl)pyridin-4-yl)oxy)piperidin-1-yl)-5-methyl-6-oxo-5,6-dihydro-1,5-naphthyridine-2-carbonitrile]

Compound: CCO[C@H]1CN(c2cc(=O)n(C)c3ccc(C#N)nc23)CC[C@@H]1Oc1ccccc1 (relative stereo) [Example 341, trans-8-(3-Ethoxy-4-phenoxypiperidin-1-yl)-5-methyl-6-oxo-5,6-dihydro-1,5-naphthyridine-2-carbonitrile]
- EC50 [1, 4]: 590 nM

Compound: CCO[C@H]1CN(c2cc(=O)n(C)c3ccc(C#N)nc23)CC[C@@H]1Oc1ccc(S(C)(=O)=O)cc1 [Example 354, 8-((3S,4S)-3-ethoxy-4-(4-(methylsulfonyl)phenoxy)piperidin-1-yl)-5-methyl-6-oxo-5,6-dihydro-1,5-naphthyridine-2-carbonitrile]
- EC50 [1, 4]: 20000 nM

- EC50 [1, 8]: 3500 nM
Compound: C[C@@H]1CN(c2nc(=O)n(C)c3ccc(C#N)nc23)[C@@H](C)CC1Oc1cccc(C(F)(F)F)c1 (stereo in doubt) [Example 252, 4-((2S,5R)-2,5-dimethyl-4-(3-(trifluoromethyl)phenoxy)piperidin-1-yl)-1-methyl-2-oxo-1,2-dihydropyrido[3,2-d]pyrimidine-6-carbonitrile]

- EC50 [1, 8]: 11000 nM
Compound: C[C@@H]1CN(c2cc(=O)n(C)c3ccc(C#N)nc23)[C@@H](C)CC1N(C)Cc1ccc(F)cc1 (single isomer, unassigned) [Example 331]

- EC50 [1, 8]: 2300 nM
Compound: CCO[C@H]1CN(c2cc(=O)n(C)c3ccc(C#N)nc23)CC[C@@H]1Oc1ccc(OC(C)C)nn1 [Example 375, 8-((3S,4S)-3-ethoxy-4-((6-isopropoxypyridazin-3-yl)oxy)piperidin-1-yl)-5-methyl-6-oxo-5,6-dihydro-1,5-naphthyridine-2-carbonitrile]

Compound: CCO[C@H]1CN(c2cc(=O)n(C)c3ccc(C#N)nc23)CC[C@@H]1Oc1ccc2oc(C)nc2c1 [Example 355, 8-((3S,4S)-3-ethoxy-4-((2-methylbenzo[d]oxazol-5-yl)oxy)piperidin-1-yl)-5-methyl-6-oxo-5,6-dihydro-1,5-naphthyridine-2-carbonitrile]
- EC50 [1, 6]: 20000 nM
